Reference: paper PMC9887599, “Synthesis, Optical Properties, and Antiproliferative Evaluation of NBD-Triterpene Fluorescent Probes” (Journal of Natural Products, 2022)

Experiments:
[1] = Absorption and fluorescence spectroscopy (photophysical data); format: physicochemical; details: DMSO, 25 °C; for τ (half-life time of fluorescence): 485 nm pulsed LED; for Φ (fluorescence quantum yield): Coumarin 6 as standard; for (λem)max: excitation at 480 nm
[2] = test system: IEC-18 epithelial rat ileum cells; experiment: MTT cytotoxicity on nontumor cells, IEC-18; format: cell-based; details: for IC50: Rattus norvegicus, IEC-18, MTT assay, nontumor cells; for SI (selectivity index, IC50 nontumor cells/IC50 cancer cells), IEC-18: column beside IEC-18
Description: (§1) Due to their greater cytotoxic activity, NBD conjugates 1 and 2 were selected to analyze their cytotoxic effects on healthy cells, using nontumor cell lines (HPF human pulmonary fibroblasts, IEC-18 epithelial rat ileum cells, and WRL68 human embryonic hepatic cells) (Table 3). The selectivity indices (SI) of the NBD-Aa-triterpene conjugates 1 and 2 were calculated with the formula: IC50 nontumor cells/IC50 cancer cells. Additionally, cell-viability percentages in the nontumor cells were measured, which ranged in most cases between 75 and 90%.
(§2) The effect of the synthesized compounds on the viability of tumor cells was assessed using the MTT assay, based on the ability of living cells to metabolically reduce 3-(4,5-dimethylthiazole)-2,5-diphenyltetrazole bromide, rendering formazan, a colored compound with a maximum absorbance of 570 nm. To study the cytotoxic effects of the compounds in the three cancer cell lines, the different lines were seeded in 96-well plates at a cell density per well of 5 × 10^3 for B16-F10, 6 × 10^3 for HT-29, and 15 × 10^3 for HepG2. After seeding, the plates were grown for 24 h and subsequently treated in triplicate with different compounds at different concentrations (0–200 μg/mL) for 72 h. After this time, the cells were stained by adding 100 mL of MTT (0.5 mg/mL) per well and incubated for 1 h. Subsequently, the cells were washed with phosphate-buffered saline (PBS), and formazan was resuspended in 100 μL of DMSO per well. Cell viability was measured by absorbance at 550 nm in an ELISA plate reader (Tecan Sunrise MR20–301, TECAN, Austria).
(§3) For this, Sigmaplot 12.5 software was used, and all quantitative data were expressed as means ± standard deviation (SD). All data shown are representative of at least two independent experiments performed in triplicate.

[3] = Cell-viability percentages in nontumor cells, summary; format: cell-based; details: human, rat; in most cases
Description: as §1
as §2, with “After this time, the cells were stained by adding 100 mL of MTT (0.5 mg/mL) per well and incubated for 1 h. Subsequently, the cells were washed with phosphate-buffered saline (PBS), and formazan was resuspended in 100 μL of DMSO per well.” left out

[4] = test system: HepG2 human hepatocyte carcinoma; experiment: MTT cell-viability assay, HepG2; format: cell-based; details: 72 h, untreated control cells as 100% viability
Description: (§4) The cytotoxic effects of 12 NBD-Aa-triterpene conjugates (1–12) were tested on three different cancer cell lines as a representation of cancers from different tissues and organs (B16-F10 murine melanoma, HT-29 human colon adenocarcinoma, and HepG2 human hepatocyte carcinoma). Cell viability was determined by MTT colorimetric analysis, with increasing concentration levels of each compound (0–200 μg/mL) and incubation for 72 h. The MTT assay was based on the metabolic reduction of 3-(4,5-dimethylthiazol-2-yl)-2,5-diphenyltetrazolium bromide (MTT) to a violet-colored compound (formazan), with a maximum absorbance at 570 nm. Cell viability was proportional to the amount of formazan and was expressed as the percentage of viable treated cells relative to untreated control cells. The concentration at which the derivatives halved the number of viable cells in the three cancer lines (IC50) was determined. […] These NBD conjugates of BO or BM also had higher IC50 values than their precursors (BO or BM), even in NBD conjugates with the shortest-chain ω-amino acid linker (6AHA) (Table 2). Due to these high IC50 values, all of these NBD-conjugated compounds were discarded for further cytometric studies.
as §2, §3

[5] = test system: HT-29 human colon adenocarcinoma; experiment: MTT cell-viability assay, HT-29; format: cell-based; details: 72 h, untreated control cells as 100% viability
Description: as §4, §2, §3

[6] = test system: HPF human pulmonary fibroblasts; experiment: MTT cytotoxicity on nontumor cells, HPF; format: cell-based; details: for IC50: Homo sapiens, Pulmonary fibroblast, MTT assay, nontumor cells; for SI (selectivity index, IC50 nontumor cells/IC50 cancer cells), HPF: column beside HPF
Description: as §1, §2, §3

[7] = test system: WRL68 human embryonic hepatic cells; experiment: MTT cytotoxicity on nontumor cells, WRL68; format: cell-based; details: for IC50: Homo sapiens, WRL68, MTT assay, nontumor cells; for SI (selectivity index, IC50 nontumor cells/IC50 cancer cells), WRL68: column beside WRL68
Description: as §1, §2, §3

B16-F10 murine melanoma = experiment: MTT cell-viability assay, B16-F10; format: cell-based; details: Mus musculus, 72 h, untreated control cells as 100% viability
Description: as §4, §2, §3

HT-29 cells = experiment: Annexin V/propidium iodide flow cytometry of cell death, HT-29; format: cell-based, human; details: HT-29, at IC50 concentration, after 72 h
Description: (§5) NBD-6AHA-triterpene conjugates 1 and 2 were selected for the characterization of their cytotoxic effects on the three cancer cell lines used. The percentages of cell death were determined using the concentrations corresponding to the IC50 values for each compound in the three cancer cell lines (B16-F10, HT-29, and HepG2). This study was conducted by flow cytometry, using double staining with DY634 annexin V/propidium iodide, which allows the identification and quantification of intact, apoptotic, or necrotic cells. Annexin DY634 (red fluorescence) is an apoptotic marker due to its ability to bind to phosphatidylserine exposed on the external cell surface. Propidium iodide (orange fluorescence) is a DNA marker that is capable of penetrating only when the cell is damaged, differentiating late apoptotic or necrotic cells from apoptotic ones. These conjugates (1 and 2) are green fluorescent probes, not causing interference in the fluorescence.
(§6) The apoptosis studies were conducted at 4, 24, and 72 h (Figure 5).
(§7) Cell death (apoptosis) was studied by flow cytometry using a FACScan (fluorescence-activated cell sorter) flow cytometer (Coulter Corporation, Hialeah, FL). […] In each experiment, approximately 10 × 10^3 cells were analyzed, and the experiment was duplicated twice.

B16-F10 cells = experiment: Annexin V/propidium iodide flow cytometry of cell death, B16-F10; format: cell-based, mouse; details: B16-F10, at IC50 concentration, after 72 h
Description: as §5, §6, §7

HepG2 cells = experiment: Annexin V/propidium iodide flow cytometry of cell death, HepG2; format: cell-based, human; details: HepG2, at IC50 concentration, after 72 h
Description: as §5, §6, §7

[8] = test system: B16-F10, HT-29, and HepG2; experiment: MTT cell-viability assay, summary over the three cancer cell lines; format: cell-based, mouse, human; details: 72 h, stated as holding in most cases, read-out: IC50 concentrations over the three cancer cell lines, in most cases
Description: as §4, §2, §3

[9] = design: method as in PMID 26512635; details: ethanol solution ref 45; cited from earlier work

| SMILES | ε (molar extinction coefficient) [1] | τ (half-life time of fluorescence) [1] | Φ (fluorescence quantum yield) [1] | (λem)max [1] | IC50 [2] | SI (selectivity index, IC50 nontumor cells/IC50 cancer cells), IEC-18 [2] | viability at 72 h [3] | IC50 [4] | IC50 [5] | IC50 [6] | SI (selectivity index, IC50 nontumor cells/IC50 cancer cells), HPF [6] | IC50 [7] | SI (selectivity index, IC50 nontumor cells/IC50 cancer cells), WRL68 [7] | IC50 (B16-F10 murine melanoma) | (λabs)max [1] | percentage of apoptosis (HT-29 cells) | percentage of apoptosis (B16-F10 cells) | percentage of apoptosis (HepG2 cells) | IC50 [8] | ΦF of the standard sample [9] |
| --- | --- | --- | --- | --- | --- | --- | --- | --- | --- | --- | --- | --- | --- | --- | --- | --- | --- | --- | --- | --- |
| CC1(C)CC[C@]2(C(=O)O)CC[C@]3(C)C(=CC[C@@H]4[C@@]5(C)CC[C@H](OC(=O)CCCCCNc6ccc([N+](=O)[O-])c7nonc67)C(C)(C)[C@@H]5CC[C@]43C)[C@@H]2C1 [Compound 1, 3β-((6-((7-Nitrobenzo[c][1,2,5]oxadiazol-4-yl)amino)hexanoyl)oxy)olean-12-en-28-oic Acid] | 2539 M^–1 cm^–1 | 7.712 ns | 0.76 | 546 nm | 41 ± 0.3 µM | 2 | 75 to 90% | 12.5 ± 0.1 µM | 19.5 ± 0.1 µM | 39.7 ± 1.2 µM | 17 | 37.9 ± 0.2 µM | 3 | 2.4 ± 0.1 µM |  |  |  |  |  |  |
| CC1(C)CC[C@]2(C(=O)O)CC[C@]3(C)C(=CC[C@@H]4[C@@]5(C)C[C@@H](OC(=O)CCCCCNc6ccc([N+](=O)[O-])c7nonc67)[C@H](O)C(C)(C)[C@@H]5CC[C@]43C)[C@@H]2C1 [Compound 2, 3β-Hydroxy-2α-((6-((7-nitrobenzo[c][1,2,5]oxadiazol-4-yl)amino)hexanoyl)oxy)olean-12-en-28-oic Acid] | 3166 M^–1 cm^–1 | 7.681 ns | 0.71 | 546 nm | 14.7 ± 0.7 µM | 2 | 75 to 90% | 13.9 ± 0.6 µM | 6.6 ± 0.1 µM | 14.8 ± 1.5 µM | 3 | 10 ± 0.3 µM | 1 | 4.9 ± 0.4 µM | 480 nm | 55% | 48% | 53% |  |  |
| CC1(C)CC[C@]2(C(=O)OCc3ccccc3)CC[C@]3(C)C(=CC[C@@H]4[C@@]5(C)CC[C@H](OC(=O)CCCCCCCCCCNc6ccc([N+](=O)[O-])c7nonc67)C(C)(C)[C@@H]5CC[C@]43C)[C@@H]2C1 [Compound 11] | 2718 M^–1 cm^–1 | 7.645 ns | 0.49 | 546 nm |  |  |  | 82.7 ± 2.5 µM | 101 ± 1.1 µM |  |  |  |  | 92.3 ± 1.5 µM | 480 nm |  |  |  | > 80 µM |  |
| CC1(C)CC[C@]2(C(=O)OCc3ccccc3)CC[C@]3(C)C(=CC[C@@H]4[C@@]5(C)C[C@@H](OC(=O)CCCCCCCCCCNc6ccc([N+](=O)[O-])c7nonc67)[C@H](O)C(C)(C)[C@@H]5CC[C@]43C)[C@@H]2C1 [Compound 12] | 2710 M^–1 cm^–1 | 7.633 ns | 0.46 | 546 nm |  |  |  | 80.9 ± 1.1 µM | 108 ± 3.8 µM |  |  |  |  | 80.8 ± 0.9 µM | 480 nm |  |  |  | > 80 µM |  |
| CCN(CC)c1ccc2cc(-c3nc4ccccc4s3)c(=O)oc2c1 [Coumarin 6] |  |  |  |  |  |  |  |  |  |  |  |  |  |  |  |  |  |  |  | 0.78 |
